How the values were obtained:
[1] = test system: HL-60; test: Cytotoxicity against human HL60 cells assessed as decrease in cell viability after 4 days by MTT assay; format: functional, cell-based; settings: HL-60, 96 h
[2] = test system: SMMC-7721; test: Cytotoxicity against human SMMC7721 cells assessed as decrease in cell viability after 4 days by MTT assay; format: functional, cell-based; settings: SMMC-7721, 96 h
[3] = test system: A549; test: Cytotoxicity against human A549 cells assessed as decrease in cell viability after 4 days by MTT assay; format: functional, cell-based; settings: A549, 96 h
[4] = test system: MCF7; test: Cytotoxicity against human MCF7 cells assessed as decrease in cell viability after 4 days by MTT assay; format: functional, cell-based; settings: MCF7, 96 h
[5] = test system: SW480; test: Cytotoxicity against human SW480 cells assessed as decrease in cell viability after 4 days by MTT assay; format: functional, cell-based; settings: SW480, 96 h
[6] = test system: SW480; test: Potency index, ratio of cisplatin IC50 to compound IC50 for human SW480 cells; format: functional
[7] = test system: SMMC-7721; test: Induction of apoptosis in human SMMC7721 cells assessed as viable cells at 0.425 uM after 48 hrs by Annexin V-FITC/PI double staining based flow cytometry (reference value: 100%); format: functional; settings: SMMC-7721, 48 h, read-out: Activity
[8] = test system: SMMC-7721; test: Induction of apoptosis in human SMMC7721 cells assessed as early apoptotic cells at 0.425 uM after 48 hrs by Annexin V-FITC/PI double staining based flow cytometry (reference value: 0.035%); format: functional
[9] = test system: SMMC-7721; test: Induction of apoptosis in human SMMC7721 cells assessed as late apoptotic cells at 0.425 uM after 48 hrs by Annexin V-FITC/PI double staining based flow cytometry (reference value: 0%); format: functional
[10] = test system: SMMC-7721; test: Induction of apoptosis in human SMMC7721 cells assessed as necrotic cells at 0.425 uM after 48 hrs by Annexin V-FITC/PI double staining based flow cytometry (reference value: 0%); format: functional
[11] = test system: SMMC-7721; test: Induction of apoptosis in human SMMC7721 cells assessed as viable cells at 0.85 uM after 48 hrs by Annexin V-FITC/PI double staining based flow cytometry (reference value: 100%); format: functional; settings: SMMC-7721, 48 h, read-out: Activity
[12] = test system: SMMC-7721; test: Induction of apoptosis in human SMMC7721 cells assessed as early apoptotic cells at 0.85 uM after 48 hrs by Annexin V-FITC/PI double staining based flow cytometry (reference value: 0.035%); format: functional
[13] = test system: SMMC-7721; test: Induction of apoptosis in human SMMC7721 cells assessed as late apoptotic cells at 0.85 uM after 48 hrs by Annexin V-FITC/PI double staining based flow cytometry (reference value: 0%); format: functional
[14] = test system: SMMC-7721; test: Induction of apoptosis in human SMMC7721 cells assessed as necrotic cells at 0.85 uM after 48 hrs by Annexin V-FITC/PI double staining based flow cytometry (reference value: 0%); format: functional
[15] = test system: SMMC-7721; test: Induction of apoptosis in human SMMC7721 cells assessed as viable cells at 1.7 uM after 48 hrs by Annexin V-FITC/PI double staining based flow cytometry (reference value: 100%); format: functional; settings: SMMC-7721, 48 h, read-out: Activity
[16] = test system: SMMC-7721; test: Induction of apoptosis in human SMMC7721 cells assessed as early apoptotic cells at 1.7 uM after 48 hrs by Annexin V-FITC/PI double staining based flow cytometry (reference value: 0.035%); format: functional
[17] = test system: SMMC-7721; test: Induction of apoptosis in human SMMC7721 cells assessed as late apoptotic cells at 1.7 uM after 48 hrs by Annexin V-FITC/PI double staining based flow cytometry (reference value: 0%); format: functional
[18] = test system: SMMC-7721; test: Induction of apoptosis in human SMMC7721 cells assessed as necrotic cells at 1.7 uM after 48 hrs by Annexin V-FITC/PI double staining based flow cytometry (reference value: 0%); format: functional
[19] = test system: SMMC-7721; test: Induction of apoptosis in human SMMC7721 cells assessed as viable cells at 3.4 uM after 48 hrs by Annexin V-FITC/PI double staining based flow cytometry (reference value: 100%); format: functional; settings: SMMC-7721, 48 h, read-out: Activity
[20] = test system: SMMC-7721; test: Induction of apoptosis in human SMMC7721 cells assessed as early apoptotic cells at 3.4 uM after 48 hrs by Annexin V-FITC/PI double staining based flow cytometry (reference value: 0.035%); format: functional
[21] = test system: SMMC-7721; test: Induction of apoptosis in human SMMC7721 cells assessed as late apoptotic cells at 3.4 uM after 48 hrs by Annexin V-FITC/PI double staining based flow cytometry (reference value: 0%); format: functional
[22] = test system: SMMC-7721; test: Induction of apoptosis in human SMMC7721 cells assessed as necrotic cells at 3.4 uM after 48 hrs by Annexin V-FITC/PI double staining based flow cytometry (reference value: 0%); format: functional
[23] = test system: SMMC-7721; test: Cell cycle arrest in human SMMC7721 cells assessed as accumulation at S phase after 24 hrs by propidium iodide staining based flow cytometry; format: functional
[24] = test system: SMMC-7721; test: Cell cycle arrest in human SMMC7721 cells assessed as accumulation at G0/G1 phase at 0.425 uM after 24 hrs by propidium iodide staining based flow cytometry (reference value: 77.85 +/- 1.90%); format: functional
[25] = test system: SMMC-7721; test: Cell cycle arrest in human SMMC7721 cells assessed as accumulation at G0/G1 phase at 0.85 uM after 24 hrs by propidium iodide staining based flow cytometry (reference value: 77.85 +/- 1.90%); format: functional
[26] = test system: SMMC-7721; test: Cell cycle arrest in human SMMC7721 cells assessed as accumulation at G0/G1 phase at 1.7 uM after 24 hrs by propidium iodide staining based flow cytometry (reference value: 77.85 +/- 1.90%); format: functional
[27] = test system: SMMC-7721; test: Cell cycle arrest in human SMMC7721 cells assessed as accumulation at G0/G1 phase at 3.4 uM after 24 hrs by propidium iodide staining based flow cytometry (reference value: 77.85 +/- 1.90%); format: functional
[28] = test system: SMMC-7721; test: Cell cycle arrest in human SMMC7721 cells assessed as accumulation at S phase at 0.425 uM after 24 hrs by propidium iodide staining based flow cytometry (reference value: 13.71 +/- 0.62%); format: functional
[29] = test system: SMMC-7721; test: Cell cycle arrest in human SMMC7721 cells assessed as accumulation at S phase at 0.85 uM after 24 hrs by propidium iodide staining based flow cytometry (reference value: 13.71 +/- 0.62%); format: functional
[30] = test system: SMMC-7721; test: Cell cycle arrest in human SMMC7721 cells assessed as accumulation at S phase at 1.7 uM after 24 hrs by propidium iodide staining based flow cytometry (reference value: 13.71 +/- 0.62%); format: functional
[31] = test system: SMMC-7721; test: Cell cycle arrest in human SMMC7721 cells assessed as accumulation at S phase at 3.4 uM after 24 hrs by propidium iodide staining based flow cytometry (reference value: 13.71 +/- 0.62%); format: functional
[32] = test system: SMMC-7721; test: Cell cycle arrest in human SMMC7721 cells assessed as accumulation at G2/M phase at 0.425 uM after 24 hrs by propidium iodide staining based flow cytometry (reference value: 5.72 +/- 0.59%); format: functional
[33] = test system: SMMC-7721; test: Cell cycle arrest in human SMMC7721 cells assessed as accumulation at G2/M phase at 0.85 uM after 24 hrs by propidium iodide staining based flow cytometry (reference value: 5.72 +/- 0.59%); format: functional
[34] = test system: SMMC-7721; test: Cell cycle arrest in human SMMC7721 cells assessed as accumulation at G2/M phase at 1.7 uM after 24 hrs by propidium iodide staining based flow cytometry (reference value: 5.72 +/- 0.59%); format: functional
[35] = test system: SMMC-7721; test: Cell cycle arrest in human SMMC7721 cells assessed as accumulation at G2/M phase at 3.4 uM after 24 hrs by propidium iodide staining based flow cytometry (reference value: 5.72 +/- 0.59%); format: functional

C=C1C(=O)[C@]23C[C@@]1(O)CC[C@H]2c1ccc(O)c(C)c1[C@@H]3Cn1cc(-c2ccc(F)cc2)nn1
IC50 [1]: 660 nM
IC50 [2]: 850 nM
IC50 [3]: 940 nM
IC50 [4]: 1700 nM
IC50 [5]: 250 nM
Ratio IC50 [6]: 33
viability at 0.425 µM [7]: 80.9%
Activity [8]: 3.31%
Activity [9]: 12.7%
Activity [10]: 3.14%
viability at 0.85 µM [11]: 79.8%
Activity [12]: 7.83%
Activity [13]: 10.7%
Activity [14]: 1.72%
viability at 1.7 µM [15]: 43.4%
Activity [16]: 31.9%
Activity [17]: 22.7%
Activity [18]: 1.97%
viability at 3.4 µM [19]: 2.17%
Activity [20]: 90.4%
Activity [21]: 7.41%
Activity [22]: 0.053%
Activity [23]: Dose-dependent effect
Activity [24]: 78.27%
Activity [25]: 74.23%
Activity [26]: 70.87%
Activity [27]: 71.54%
Activity [28]: 13.92%
Activity [29]: 17.38%
Activity [30]: 19.35%
Activity [31]: 22.73%
Activity [32]: 6.24%
Activity [33]: 7.7%
Activity [34]: 6.05%
Activity [35]: 0.89%

Source: ChEMBL document CHEMBL4219271, “Synthesis and anti-proliferative activity of allogibberic acid derivatives containing 1,2,3-triazole pharmacophore” (Bioorg Med Chem Lett, 2018)
